Test results taken from ChEMBL document CHEMBL1132959, “Design of potent dicyclic (1-5/4-10) gonadotropin releasing hormone (GnRH) antagonists” (J Med Chem, 2000).

These molecules were tested against T1, Gonadotropin-releasing hormone receptor (Rattus norvegicus, UniProt P30969) (assay: Affinity for rat gonadotrophin releasing hormone (GnRH) receptor using HEK293 cells transfected with rat Gonadotropin-releasing hormone receptor). Conditions: hek293.
T1 sequence (P30969 whole entry): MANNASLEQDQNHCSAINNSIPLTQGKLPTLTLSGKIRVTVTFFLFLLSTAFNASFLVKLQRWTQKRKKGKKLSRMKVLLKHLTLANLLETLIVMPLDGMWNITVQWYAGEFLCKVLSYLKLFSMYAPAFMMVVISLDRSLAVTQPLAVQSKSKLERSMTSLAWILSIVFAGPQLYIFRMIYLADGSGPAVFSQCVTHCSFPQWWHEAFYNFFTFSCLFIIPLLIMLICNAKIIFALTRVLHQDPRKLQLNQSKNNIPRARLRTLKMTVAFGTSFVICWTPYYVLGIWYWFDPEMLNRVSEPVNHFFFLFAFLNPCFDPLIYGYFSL
Type: cell-based

Q: `CC(=O)N[C@H](Cc1ccc2ccccc2c1)C(=O)N[C@@H]1CCC(=O)NCCCC[C@@H](C(=O)N2CCC[C@H]2C(=O)N[C@H](C)C(N)=O)NC(=O)[C@H](CC(C)C)NC(=O)[C@@H](Cc2ccc3ccccc3c2)NC(=O)[C@H](CCCN=C(N)N)NC(=O)[C@H](C)NC(=O)[C@@H](Cc2cccnc2)NC1=O` was tested. Which Ki did it give?
A: 110 nM

Q: How did the Ki turn out when `CC(=O)N[C@H](Cc1ccc2ccccc2c1)C(=O)N[C@H](Cc1ccc(F)cc1)C(=O)N[C@H](Cc1c[nH]c2ccccc12)C(=O)N[C@H]1CC(=O)NC[C@@H](C(N)=O)NC(=O)[C@@H]2CCCN2C(=O)[C@@H]2CCCCNC(=O)CC[C@H](NC1=O)C(=O)N[C@H](CCCN=C(N)N)C(=O)N[C@@H](CC(C)C)C(=O)N2` was run?
A: 0.32 nM

Q: `CC(=O)N[C@H](Cc1ccc2ccccc2c1)C(=O)N[C@H](Cc1ccc(Cl)cc1)C(=O)N[C@@H]1CC(=O)NCCCC[C@@H]2NC(=O)[C@H](CC(C)C)NC(=O)[C@@H](CCCNC(=N)N)NC(=O)[C@H](Cc3ccc(O)cc3)NC(=O)[C@H](CC(=O)NC[C@@H](C(N)=O)NC(=O)[C@@H]3CCCN3C2=O)NC1=O` was tested. Which Ki did it give?
A: 17 nM

Q: For `CC(=O)N[C@H](Cc1ccc2ccccc2c1)C(=O)N[C@@H]1CCC(=O)NCCCC[C@@H]2NC(=O)[C@H](CC(C)C)NC(=O)[C@@H](Cc3ccc4ccccc4c3)NC(=O)[C@H](CCCN=C(N)N)NC(=O)[C@H](CC(=O)NC[C@@H](C(N)=O)NC(=O)[C@@H]3CCCN3C2=O)NC(=O)[C@@H](Cc2cccnc2)NC1=O` [listing 1 of 2 here], which Ki is on record?
A: 15 nM

Q: With `CC(=O)N[C@@H]1CCC(=O)NCCCC[C@@H](C(=O)N2CCC[C@H]2C(=O)N[C@@H](C)C(N)=O)NC(=O)[C@H](CC(C)C)NC(=O)[C@H](Cc2ccc3ccccc3c2)NC(=O)[C@H](CCCNC(=N)N)NC(=O)[C@H](C)NC(=O)[C@H](Cc2cccnc2)NC(=O)[C@H](Cc2ccc(Cl)cc2)NC1=O` as the molecule, how does the Ki read?
A: 55 nM

Q: With `CC(=O)N[C@H](Cc1ccc2ccccc2c1)C(=O)N[C@H](Cc1ccc(Cl)cc1)C(=O)N[C@@H]1CC(=O)NCCCC[C@@H]2NC(=O)[C@H](CC(C)C)NC(=O)[C@@H](Cc3ccc4ccccc4c3)NC(=O)[C@H](CCCNC(=N)N)NC(=O)[C@H](CC(=O)NC[C@@H](C(N)=O)NC(=O)[C@@H]3CCCN3C2=O)NC1=O` as the molecule, how does the Ki read?
A: 11 nM

Q: Which Ki does the source give for `CC(=O)N[C@@H]1CC(=O)NCC(=O)NCC[C@H]2NC(=O)[C@@H](CC(=O)NC[C@H](C(N)=O)NC(=O)[C@H]3CCCN3C(=O)[C@H](CCCN=C(N)N)NC(=O)[C@@H](CC(C)C)NC(=O)[C@@H](Cc3ccc4ccccc4c3)NC2=O)NC(=O)[C@@H](Cc2ccc3ccccc3c2)NC(=O)[C@H](Cc2ccc(Cl)cc2)NC1=O` here?
A: 0.38 nM

Q: Which Ki does the source give for `CC(=O)N[C@H](Cc1ccc2ccccc2c1)C(=O)N[C@H](Cc1ccc(F)cc1)C(=O)N[C@H](Cc1cccnc1)C(=O)N[C@H]1CC(=O)NC[C@@H](C(N)=O)NC(=O)[C@@H]2CCCN2C(=O)[C@@H]2CCNC(=O)CNC(=O)CC[C@H](NC1=O)C(=O)N[C@H](CCCN=C(N)N)C(=O)N[C@@H](CC(C)C)C(=O)N2` here?
A: 0.12 nM

Q: With `CC(=O)N[C@H](Cc1ccc2ccccc2c1)C(=O)N[C@H](Cc1ccc(Cl)cc1)C(=O)N[C@@H]1CCC(=O)NCCCC[C@@H](C(=O)N2CCC[C@H]2C(=O)N[C@H](C)C(N)=O)NC(=O)[C@H](CC(C)C)NC(=O)[C@@H](Cc2ccc3ccccc3c2)NC(=O)[C@H](CCCNC(=N)N)NC(=O)[C@H](CO)NC1=O` as the molecule, how does the Ki read?
A: 23 nM

Q: Which Ki does the source give for `CC(=O)N[C@H](Cc1ccc2ccccc2c1)C(=O)N[C@@H]1CC(=O)NC[C@@H](C(=O)N2CCC[C@H]2C(=O)N[C@H](C)C(N)=O)NC(=O)[C@H](CC(C)C)NC(=O)[C@@H](Cc2ccc3ccccc3c2)NC(=O)[C@H](CCCNC(=N)N)NC(=O)[C@H](C)NC(=O)[C@@H](Cc2cccnc2)NC1=O` [listing 1 of 2 here] here?
A: 67 nM

Species: Rattus norvegicus
Test: Antiovulatory potency at 1 ug/rat expressed as rats ovulating by total no. of rats (5/7)
Type: functional
Conditions: not given

Q: How did the Ovulating rats turn out when `CC(=O)N[C@@H]1CC(=O)NCC(=O)NCC[C@H]2NC(=O)[C@@H](CC(=O)NC[C@H](C(N)=O)NC(=O)[C@H]3CCCN3C(=O)[C@H](CCCN=C(N)N)NC(=O)[C@@H](CC(C)C)NC(=O)[C@@H](Cc3ccc4ccccc4c3)NC2=O)NC(=O)[C@@H](Cc2ccc3ccccc3c2)NC(=O)[C@H](Cc2ccc(Cl)cc2)NC1=O` was run?
A: 5

Species: Rattus norvegicus
Test: Antiovulatory potency at 2.5 ug/rat expressed as rats ovulating by total no. of rats (2/8)
Type: functional
Conditions: not given

Q: How did the Ovulating rats turn out when `CC(=O)N[C@@H]1CC(=O)NCC(=O)NCC[C@H]2NC(=O)[C@@H](CC(=O)NC[C@H](C(N)=O)NC(=O)[C@H]3CCCN3C(=O)[C@H](CCCN=C(N)N)NC(=O)[C@@H](CC(C)C)NC(=O)[C@@H](Cc3ccc4ccccc4c3)NC2=O)NC(=O)[C@@H](Cc2ccc3ccccc3c2)NC(=O)[C@H](Cc2ccc(Cl)cc2)NC1=O` was run?
A: 2

Species: Rattus norvegicus
Test: Antiovulatory potency at 1000 ug/rat expressed as rats ovulating by total no. of rats (4/4)
Type: functional
Conditions: not given

Q: Which Ovulating rats does the source give for `CC(=O)N[C@H](Cc1ccc2ccccc2c1)C(=O)N[C@@H]1CCC(=O)NCCCC[C@@H]2NC(=O)[C@H](CC(C)C)NC(=O)[C@@H](Cc3ccc4ccccc4c3)NC(=O)[C@H](CCCN=C(N)N)NC(=O)[C@H](CC(=O)NC[C@@H](C(N)=O)NC(=O)[C@@H]3CCCN3C2=O)NC(=O)[C@@H](Cc2cccnc2)NC1=O` [listing 2 of 2 here] here?
A: 4

Q: `CC(=O)N[C@H](Cc1ccc2ccccc2c1)C(=O)N[C@@H]1CC(=O)NC[C@@H](C(=O)N2CCC[C@H]2C(=O)N[C@H](C)C(N)=O)NC(=O)[C@H](CC(C)C)NC(=O)[C@@H](Cc2ccc3ccccc3c2)NC(=O)[C@H](CCCNC(=N)N)NC(=O)[C@H](C)NC(=O)[C@@H](Cc2cccnc2)NC1=O` [listing 2 of 2 here] was tested. Which Ovulating rats did it give?
A: 4

Q: `CC(=O)N[C@@H]1CCC(=O)NCCCC[C@@H](C(=O)N2CCC[C@H]2C(=O)N[C@@H](C)C(N)=O)NC(=O)[C@H](CC(C)C)NC(=O)[C@H](Cc2ccc3ccccc3c2)NC(=O)[C@H](CCCNC(=N)N)NC(=O)[C@H](C)NC(=O)[C@H](Cc2cccnc2)NC(=O)[C@H](Cc2ccc(Cl)cc2)NC1=O` was tested. Which Ovulating rats did it give?
A: 4

Q: With `CC(=O)N[C@H](Cc1ccc2ccccc2c1)C(=O)N[C@H](Cc1ccc(Cl)cc1)C(=O)N[C@@H]1CC(=O)NC[C@@H](C(=O)N2CCC[C@H]2C(=O)N[C@H](C)C(N)=O)NC(=O)[C@H](CC(C)C)NC(=O)[C@@H](Cc2ccc3ccccc3c2)NC(=O)[C@H](CCCN=C(N)N)NC(=O)[C@H](C)NC1=O` as the molecule, how does the Ovulating rats read?
A: 4
